Broadly, the IC50 is the midpoint of a concentration-inhibition curve. Low readings indicate higher potency, high ones lower potency. One may read the AUC as concentration integrated over time. Higher therefore signals high exposure. As a reminder, the bioavailability is the share of a dose that reaches the circulation, judged against a reference dose that is usually intravenous. A low value points to poor availability. What is called half-life is the time needed for the level to fall by half in the phase considered. A higher half-life goes with slow decline.

The target in data set [1] is Cyclin-dependent kinase 1 (Homo sapiens, UniProt P06493). Nature of the data set: Inhibition of CDK1 activity.
Cyclin-dependent kinase 1, sequence (P06493 whole entry): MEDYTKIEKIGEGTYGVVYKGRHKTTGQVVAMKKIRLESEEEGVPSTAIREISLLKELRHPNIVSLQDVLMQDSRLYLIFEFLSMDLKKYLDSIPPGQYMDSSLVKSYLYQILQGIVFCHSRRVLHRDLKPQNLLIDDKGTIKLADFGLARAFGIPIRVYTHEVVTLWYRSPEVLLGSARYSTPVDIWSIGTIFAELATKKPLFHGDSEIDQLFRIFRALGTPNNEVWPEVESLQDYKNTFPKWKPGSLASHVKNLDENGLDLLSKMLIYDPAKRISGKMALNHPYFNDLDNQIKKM
Data set [2] has as its target Vascular endothelial growth factor receptor 2 (Homo sapiens, UniProt P35968). As to the kind of experiment: Inhibition of VEGFR2 activity.
A short description of data set [3]: Area under curve in nude mouse at 3 mg/kg. Type of data set: ADME, organism-based. On the set-up: dose 3 mg/kg. The settings on record: in vivo.
The nature of data set [4]: Oral bioavailability in nude mouse at 3 mg/kg. In kind it is ADME, organism-based. The settings on record: in vivo.
Data set [5] in a line: Half life in nude mouse at 100 mg/kg, po. The settings on record: in vivo. Also noted: dose 100 mg/kg, route oral. Type of data set: ADME, organism-based.
Data set [6] deals with Mus musculus. Nature of the data set: Drug level in nude mouse plasma at 100 mg/kg, po. In kind it is ADME, organism-based. Also noted: dose 100 mg/kg, route oral. To be noted: in vivo.
The subject of data set [7] is Mus musculus. Nature of the data set: Decrease in body weight in C57BL/6 mouse at 100 to 175 mg/kg, po. The settings on record: in vivo.

Vascular endothelial growth factor receptor 2, sequence (P35968 whole entry): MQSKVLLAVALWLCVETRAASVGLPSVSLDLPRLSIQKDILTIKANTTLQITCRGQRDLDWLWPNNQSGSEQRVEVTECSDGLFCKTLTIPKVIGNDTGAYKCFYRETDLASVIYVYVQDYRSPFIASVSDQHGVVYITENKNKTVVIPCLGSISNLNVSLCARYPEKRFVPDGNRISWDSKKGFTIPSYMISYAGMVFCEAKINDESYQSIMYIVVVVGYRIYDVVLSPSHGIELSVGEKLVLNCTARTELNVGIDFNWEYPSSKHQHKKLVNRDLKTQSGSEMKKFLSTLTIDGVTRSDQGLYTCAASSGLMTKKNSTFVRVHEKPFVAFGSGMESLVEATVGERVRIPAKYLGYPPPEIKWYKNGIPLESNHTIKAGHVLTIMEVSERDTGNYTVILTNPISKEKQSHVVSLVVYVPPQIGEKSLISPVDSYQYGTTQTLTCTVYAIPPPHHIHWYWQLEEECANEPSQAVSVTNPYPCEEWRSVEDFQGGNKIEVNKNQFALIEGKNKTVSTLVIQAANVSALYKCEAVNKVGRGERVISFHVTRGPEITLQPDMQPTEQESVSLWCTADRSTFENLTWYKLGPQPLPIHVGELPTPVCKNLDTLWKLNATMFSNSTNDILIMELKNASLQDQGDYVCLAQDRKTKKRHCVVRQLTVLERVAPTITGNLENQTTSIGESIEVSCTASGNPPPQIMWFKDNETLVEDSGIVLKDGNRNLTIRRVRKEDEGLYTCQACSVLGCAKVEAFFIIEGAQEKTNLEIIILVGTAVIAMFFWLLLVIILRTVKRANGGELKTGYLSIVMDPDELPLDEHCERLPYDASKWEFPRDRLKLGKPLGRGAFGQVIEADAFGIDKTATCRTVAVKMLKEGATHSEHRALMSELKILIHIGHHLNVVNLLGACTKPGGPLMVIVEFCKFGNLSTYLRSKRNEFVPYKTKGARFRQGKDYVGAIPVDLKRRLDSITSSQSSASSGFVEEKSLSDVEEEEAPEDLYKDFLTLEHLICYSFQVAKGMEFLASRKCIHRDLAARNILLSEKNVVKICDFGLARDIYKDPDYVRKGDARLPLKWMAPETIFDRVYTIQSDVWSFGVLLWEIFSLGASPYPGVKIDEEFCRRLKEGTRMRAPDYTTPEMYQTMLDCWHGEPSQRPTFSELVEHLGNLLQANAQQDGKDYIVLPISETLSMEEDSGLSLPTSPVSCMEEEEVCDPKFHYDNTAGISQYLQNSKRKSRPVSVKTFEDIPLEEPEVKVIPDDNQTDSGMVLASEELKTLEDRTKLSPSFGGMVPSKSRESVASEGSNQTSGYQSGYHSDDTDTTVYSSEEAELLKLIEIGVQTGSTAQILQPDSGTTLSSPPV

Turning to `N#Cc1cnc(Nc2ccccc2Cl)nc1-c1ccccc1`, the values for the IC50 in data set [1] and in data set [2] were above 10 µM and above 10000 nM, respectively.

`N#Cc1cnc(Nc2ncccn2)nc1-c1ccccc1`: the IC50 in data set [1] is above 10 µM; in data set [2] it was above 10000 nM.

With `COc1ccccc1Nc1ncc(C#N)c(-c2ccccc2)n1`, the IC50 is above 10 µM in data set [1] and above 10000 nM in data set [2].

As for `CC(C)(N)c1ccc(-c2nc(Nc3ccc(OCCN4CCOCC4)cc3)ncc2C#N)cc1`, the concentration for half-maximal inhibition (IC50) is 21 µM in data set [1] and 450 nM in data set [2].

For `CC(C)(N)c1ccc(-c2nc(Nc3ccc(CCO)cc3)ncc2C#N)cc1`, the half-inhibitory concentration (IC50) was 1.6 µM in data set [1] and 52 nM in data set [2].

On to `N#Cc1cnc(Nc2ccc(Cl)cc2)nc1-c1ccccc1`, for which the IC50 in data set [1] was above 10 µM; in data set [2], above 10000 nM.

`COc1cc(Nc2ncc(C#N)c(-c3ccccc3)n2)ccc1CN1CCCC1`: the half-inhibitory concentration (IC50) in data set [1] was found to be 9 µM; in data set [2], 91 nM.

On to `CC(C)(N)c1ccc(-c2nc(Nc3cccc(CCN4CCOCC4)c3)ncc2C#N)cc1`, for which the IC50 in data set [1] was determined as 5.7 µM; in data set [2] it was 55 nM.

Consider `N#Cc1cnc(Nc2ccc(CCO)cc2)nc1-c1ccccc1`, for which the IC50 in data set [1] was determined as 2 µM; in data set [2] it was 200 nM.

Consider `N#Cc1cnc(Nc2ccccc2)nc1-c1ccccc1`, for which the IC50 in data set [1] is above 10 µM; in data set [2], 1000 nM.

With `N#Cc1cnc(Nc2nc3ccccc3[nH]2)nc1-c1ccccc1`, the IC50 in data set [1] is above 10 µM; in data set [2], 10000 nM.

In the case of `CC(C)(C)c1nc(Nc2ccc(CCO)cc2)ncc1C#N`, the IC50 was 1.1 µM in data set [1] and 1600 nM in data set [2].

As to `Cc1cc2cc(Nc3ncc(C#N)c(-c4ccccc4)n3)ccc2[nH]1`, the IC50 in data set [1] worked out at 3.3 µM; in data set [2], 410 nM.

With `N#Cc1cnc(Nc2cccc(CN3CCOCC3)c2)nc1-c1ccccc1`, the IC50 in data set [1] was found to be 2 µM; in data set [2], 360 nM.

In the case of `N#Cc1cnc(Nc2ccc(CCC(=O)N3CCOCC3)cc2)nc1-c1ccccc1`, the values for the IC50 in data set [1] and in data set [2] were 2.1 µM and 180 nM, respectively.

For `CCc1nccn1CCc1ccc(Nc2ncc(C#N)c(-c3ccc(C(C)(C)N)cc3)n2)cc1`, the values for the IC50 in data set [1] and in data set [2] were 4.8 µM and 94 nM, respectively.

Turning to `N#Cc1cnc(Nc2ccc(CCO)cc2)nc1-c1ccc(Br)cc1`, the results for the IC50 in data set [1] and in data set [2] were 2 µM and 180 nM, respectively.

`N#Cc1cnc(Nc2ccc(CCO)cc2)nc1-c1ccc2[nH]ccc2c1`: the IC50 in data set [1] was determined as 0.41 µM; in data set [2] it was 90 nM.

As to `N#Cc1cnc(Nc2ccc3ccccc3c2)nc1-c1ccccc1`, the values for the IC50 in data set [1] and in data set [2] were above 10 µM and 2100 nM, respectively.

As for `N#Cc1cnc(Nc2ccc(CCO)cc2)nc1-c1cc2ccccc2[nH]1`, the IC50 in data set [1] was determined as 1.7 µM; in data set [2], 1400 nM.

For the molecule `CN1CCN(CCc2ccc(Nc3ncc(C#N)c(-c4ccc(C(C)(C)N)cc4)n3)cc2)CC1`, the IC50 was 5.6 µM in data set [1] and 21 nM in data set [2].

Regarding `N#Cc1cnc(Nc2ccc(CCO)cc2)nc1-c1ccc(S(N)(=O)=O)cc1`, the IC50 in data set [1] was 1.9 µM; in data set [2], 200 nM.

`CC(C)(O)c1ccc(-c2nc(Nc3ccc(CCO)cc3)ncc2C#N)cc1`: the IC50 in data set [1] is 2.7 µM; in data set [2], 410 nM.

For `COc1ccc(-c2nc(Nc3ccc(CCO)cc3)ncc2C#N)cc1`, the results for the IC50 in data set [1] and in data set [2] were 1.5 µM and 150 nM, respectively.

In the case of `CC(C)(N)c1ccc(-c2nc(Nc3ccc(CCN4CCOCC4)cc3)ncc2C#N)cc1`, the IC50 came out at 4.1 µM in data set [1] and 27 nM in data set [2]. Further, the AUC in data set [3] stood at 15.6 µM·h. In addition, in data set [4], the bioavailability was 44%. Further, the half-life in data set [5] was 420 min. Also, in the data set on Mus musculus [6], the concentration was found to be 12 µM. In addition, in the data set on Mus musculus [7], the Activity result was “Not Active”.

For `N#Cc1cnc(Nc2ccc(CCO)cc2)nc1-c1cccs1`, the IC50 was 0.47 µM in data set [1] and 82 nM in data set [2].

`N#Cc1cnc(Nc2ccc(CCO)cc2)nc1-c1nc2ccccc2s1`: the IC50 in data set [1] came out at 0.56 µM; in data set [2], 340 nM.

In the case of `N#Cc1cnc(Nc2ccc(CN3CCCC3)cc2)nc1-c1ccccc1`, the IC50 in data set [1] turned out to be 6.2 µM; in data set [2], 61 nM.

Regarding `COc1ccc(Nc2ncc(C#N)c(-c3ccccc3)n2)cc1`, the figures for the IC50 in data set [1] and in data set [2] were 3.3 µM and 490 nM, respectively.

Consider `Cc1ccc(Nc2ncc(C#N)c(-c3ccccc3)n2)cc1`, for which the IC50 in data set [1] amounted to 3.5 µM; in data set [2] it was 1000 nM.

Turning to `COc1cccc(Nc2ncc(C#N)c(-c3ccccc3)n2)c1`, the IC50 came out at 4.2 µM in data set [1] and 380 nM in data set [2].

As to `N#Cc1cnc(Nc2ccc(CCN3CCCC3)cc2)nc1-c1ccccc1`, the values for the IC50 in data set [1] and in data set [2] were 6.5 µM and 110 nM, respectively.

The values are drawn from ChEMBL document CHEMBL1148688, “4-Aryl-5-cyano-2-aminopyrimidines as VEGF-R2 inhibitors: synthesis and biological evaluation” (Bioorg Med Chem Lett, 2007).
